Measured values published in US10111901B2, “Beta-glucan in combination with anti-cancer agents affecting the tumor microenvironment” (Biothera, Inc., priority 2014, dated 2018).

How the values were obtained:
M2 macrophages [1] = assay: Flow cytometry of M1/M2-specific markers on M2 macrophages derived from vehicle- or β-glucan-treated whole blood; type: cell-based, human
Experimental: (§1) CD14^+ monocytes from human whole blood were enriched using Ficoll gradient and magnetic bead separation. Enriched monocytes (5×10^5 cells per mL) were then cultured in either M1-polarizing (XVivo 10 media (Lonza Group) supplemented with 5% autologous serum and 100 ng/mL recombinant human granulocyte macrophage colony-stimulating factor (rhGM-CSF) (R&D Systems) or M2-polarizing (XVivo 10 media supplemented with 10% autologous serum and 50 ng/mL recombinant human macrophage colony-stimulating factor (rhM-CSF) (R&D Systems) conditions for 6 days. In experiments performed to evaluate the effect of β-glucan, whole blood was first incubated with vehicle (sodium citrate buffer) or 25 μg/mL soluble β-glucan for 2 hours at 37° C. and then the monocytes were isolated and differentiated. Morphology was checked before macrophages were harvested for phenotypic analysis. Culture medium of the day 6 macrophage culture (MCM) was collected, spun down to remove contaminated cell pellet and then frozen down for subsequent cytokine analysis by ELISA or used to setup a co-culture with CD3 & CD28-stimulated CD4 T cells (MCM-CD4 T) for evaluation of either surface markers or CD4 T cell proliferation. The macrophages were used to setup a co-culture with CD3 & CD28- or CD3 only-stimulated CD4 T cells (Mac-CD4 T) on day 6 for evaluation of either surface marker modulation or effect on CD4 T cell proliferation. For Mac-CD4 T cell proliferation study, M1 or M2 macrophages were cultured with CD3 & CD28- or CD3 only-stimulated, CFSE-labeled, autologous CD4 T cells at a 1:10 ratio. T cell proliferation was measured at the end of the experiment (day 9-day 11) by flow cytometry, and results are graphically shown as CFSE-dilution peaks. The assessment of CD3-only stimulated T cells was always done on day 11. Quantitative results were reported as the Division Index (the average number of cell divisions a population underwent) calculated for each of the triplicate wells in each of the culture conditions. Culture supernatants of Mac-CD4 T co-cultures were collected for subsequent cytokine analysis.
M1 and M2 macrophages from vehicle- or β-glucan-treated whole blood were prepared as described above. […] In addition, surface expression of CD86 was enhanced as well as both protein and mRNA levels of PD-L1 (FIG. 2B).
Expression of a panel of markers was evaluated by flow cytometry for vehicle- and β-glucan-treated, high binder-derived M1 and M2 macrophages (CD163 was evaluated twice).
CD163 and CD86 were evaluated by flow cytometry for vehicle- and β-glucan-treated, low binder-derived M1 and M2 macrophages.
Phenotypic and functional evaluation of β-glucan-treated M2a and β-glucan-treated M2 macrophages in the presence of immunosuppressive cytokines was carried out. M2 or M2a macrophages were prepared as described above. On day 3, tumor-conditioned medium (TCM) was added M2 macrophage cultures to account for 70% of the volume of the culture and then evaluated for CD163 expression and functional activity on day 6. […] M2a macrophages were cultured in IL-4 as described above.
The β-glucan-treated M2a macrophages cultured in IL-4 and M2 macrophages cultured in TCM were first evaluated for CD163 and CD86 expression. CD163 and CD86 were evaluated by flow cytometry and median MFI was calculated for isotype control staining and surface antigen staining and the results are shown in Table 5.
Monocytes or M2 macrophages were prepared as described above. On day 3, TCM was added to account for 70% of the volume of the culture and then evaluated for PD-L1 expression with TCM and then again when co-cultured with CD4 T cells.

[2] = system: tumor cell lines, including NSCLC, breast, pancreatic, colon, and B cell lymphoma; assay: PD-L1 expression on tumor cell lines incubated with supernatant of M2 macrophage/MoDC and T cell co-culture; type: cell-based; conditions: supernatants of proliferation assays, 48 hours
Experimental: M2 macrophages and MoDC were prepared as described above. The macrophages and the MoDC were subsequently used in T cell proliferation assays as described previously. The supernatants from these proliferation assays were harvested and incubated with various tumor cell lines, including NSCLC, breast, pancreatic, colon, and B cell lymphoma. The expression of PD-L1 on these tumor cell lines were evaluated post 48 hours by flow cytometry. Shown in FIG. 15 are representative results from 3 different experiments.

M2 macrophages [3] = assay: Mac-CD4 T co-culture surface marker modulation on macrophages; type: cell-based, human
Experimental: For evaluation of Mac-CD4 T cell surface marker modulation, M2 macrophages were co-cultured with T cells as described above and cells were harvested on day 8, day 9 and day 10 to perform surface receptor staining on both M2 macrophages and T cells.
Changes in surface marker expression on both macrophages and CD3 & CD28-stimulated T cells were also measured. Vehicle- and β-glucan-treated M2 macrophages and CD T cells from the co-cultures were evaluated by flow cytometry for the modulation of co-stimulatory or co-inhibitory molecules. FIG. 8C and Table 9 are representative results from 2 different experiments.

CD4 T cells = assay: Mac-CD4 T cell proliferation assay (CFSE dilution, Division Index); type: cell-based, human
Experimental: as §1
Next, vehicle- or β-glucan-treated M1 or M2 macrophages were cultured with CD3 and CD28-stimulated, carboxyfluorescein diacetate succinimidyl ester (CFSE)-labeled autologous CD4 T cells and T cell proliferation was measured at the end of the experiment by flow cytometry and results quantitatively reported as division index (the average number of cell divisions a population has undergone).
Next, the ability of M1/M2 macrophages derived from soluble β-glucan-treated monocytes from high binders and low binders to enhance CD3 & CD28-stimulated CD4 T cell proliferation was evaluated.
Evaluation of cell-to-cell contact was carried out as follows: vehicle- and β-glucan-treated M2 macrophages and CD3 & CD28− versus CD3 only-stimulated CD4 T cell co-cultures were utilized for measuring CD4 T cell proliferation and IFN-γ production.

CD4 and CD8 T cells = assay: Allogeneic mixed lymphocyte reaction (allo-MLR) with mMoDC; type: cell-based, human
[4] = M2 macrophages cultured in TCM (70% of volume, from day 3), immunosuppressive conditions
[5] = M2 macrophages, high binder, 25 μg/mL
[6] = relative to vehicle-treated M2 macrophages, co-culture

β(1,6)-[poly-(1,3)-D-glucopyranosyl]-poly-β(1,3)-D-glucopyranose [β-glucan]
CD86 median MFI (M2 macrophages [1]; [4]): 2697 | CD163 median MFI (M2 macrophages [1]; [4]): 1112 | CD86 median MFI (M2 macrophages [1]; [5]): 2953 | CD163 (1) median MFI (M2 macrophages [1]; [5]): 759 | CD163 (2) median MFI (M2 macrophages [1]; [5]): 1153 | CD206 median MFI (M2 macrophages [1]; [5]): 1056 | CD209 median MFI (M2 macrophages [1]; [5]): 801 | CD274 (PD-L1) median MFI (M2 macrophages [1]; [5]): 4427 | HLA-DR median MFI (M2 macrophages [1]; [5]): 1007 | CD86 median MFI (M2 macrophages [1]; M2 macrophages, low binder): 2284 | CD163 median MFI (M2 macrophages [1]; M2 macrophages, low binder): 3315 | phenotypic markers on monocyte-derived macrophages (M2 macrophages [1]; low binders, M1/M2 polarizing conditions (data not shown)): did not modulate | surface expression of CD86 (M2 macrophages [1]; β-glucan-treated M2 macrophages): enhanced | surface expression of PD-L1 (M2 macrophages [1]; β-glucan-treated M2 macrophages cultured in TCM): higher surface expression | HLA-DR expression (M2 macrophages [1]; β-glucan-treated M2 macrophages cultured in TCM (data not shown)): higher | PD-L1 expression (M2 macrophages [1]; β-glucan-treated M2 macrophages in TCM co-cultured with CD4 T cells): increased expression | mean fluorescence intensity (MFI) of CD163 (M2 macrophages [1]; β-glucan-treated M2 macrophages, FIG. 2A): downmodulated | protein and mRNA levels of PD-L1 (M2 macrophages [1]; β-glucan-treated M2 macrophages, FIG. 2B): enhanced | PD-L1 expression on the tumor cell lines [2]: enhances PD-L1 expression | Change in MFI on Macrophages: 4-1BBL (M2 macrophages [3]; [6]): No change | Change in MFI on Macrophages: CD40 (M2 macrophages [3]; [6]): No change | Change in MFI on Macrophages: CD80 (M2 macrophages [3]; [6]): No change | Change in MFI on Macrophages: CD172 (M2 macrophages [3]; [6]): No change | Change in MFI on Macrophages: CD209 (M2 macrophages [3]; [6]): No change | Change in MFI on Macrophages: OX40 (M2 macrophages [3]; [6]): No change | Change in MFI on Macrophages: CD86 (M2 macrophages [3]; relative to vehicle-treated M2 macrophages, co-culture (day 8)): Increase | Change in MFI on Macrophages: PD-L1 (CD274) (M2 macrophages [3]; relative to vehicle-treated M2 macrophages, co-culture (day 9)): Increase | Change in MFI on Macrophages: HLA-DR (M2 macrophages [3]; β-glucan-treated M2 macrophages relative to vehicle-treated, co-culture with CD3 & CD28-stimulated T cells): No change | CD4 T cell proliferation (CD4 T cells; M2 macrophages cultured in TCM and M2a macrophages cultured in IL-4, vs vehicle-treated): maintained the ability to enhance CD4 T cell proliferation | CD3 & CD28-stimulated CD4 T cell proliferation (CD4 T cells; β-glucan-treated M1 macrophages, high binders or low binders): no differences | CD3 & CD28-stimulated CD4 T cell proliferation (CD4 T cells; β-glucan-treated M2 macrophages vs vehicle-treated, high binders): significantly higher ability to enhance | CD4 T cell proliferation (CD4 T cells; β-glucan-treated M2 macrophages with CD3 and CD28-stimulated CD4 T cells, FIG. 2C): enhance CD4 T cell proliferation | CD4 T cell proliferation (CD4 T cells; β-glucan-treated M2 macrophages, absence of exogenous CD28 antibody (CD3 only)): significantly higher ability to enhance | CD3 & CD28-stimulated CD4 T cell proliferation (CD4 T cells; β-glucan-treated M2 macrophages, low binders): no enhanced proliferation | immunogenicity in allo-MLR (CD4 and CD8 T cell expansion) (CD4 and CD8 T cells; β-glucan-treated mMoDC from high binders): increased immunogenicity | IFN-γ production (CD4 and CD8 T cells; β-glucan-treated mMoDC from high binders vs low binders and vehicle-treated mMoDCs): able to modulate IFN-γ production
